# Source: paper PMC11009625, “Antibiotic class with potent in vivo activity targeting lipopolysaccharide synthesis in Gram-negative bacteria” (Proceedings of the National Academy of Sciences of the …, 2024)
# Key:
# Assay type in all cases: cell-based
# [1] = system: E. coli (EN122); assay: MIC of E. coli strain used in the in vivo efficacy studies; settings: Escherichia coli
# Description: (§1) Minimum inhibitory concentration (MIC) values were determined according to the Clinical Laboratory Standards Institute guidelines. Frequency of resistance was determined by plating ~5 × 10^8 bacterial cells on agar-solidified media plates containing test compound at concentrations corresponding to four times the measured solid-media MIC of the strains. Colonies were counted after 24 h, restreaked onto media containing the same concentration of compound, and the MIC remeasured against the assayed compound. Genomic DNA from isolated clones was sequenced by paired-end sequencing on an Illumina MiSeq device. Complete experimental details available in SI Appendix.
# (§2) Lantmännen) and water. […]
# (§3) Safety testing in mice. […] Mice were extensively observed and toxicity signs were scored after 0-2, 5, […]
# (§4) Plasma sample analysis by UPLC/MS/MS. Concentrations of EBL-3599 and EBL-3647 in mouse blood plasma were measured by liquid chromatography tandem mass spectrometry (LC/MS/MS) in positive electrospray ionization (ESI+) in multi reaction monitoring (MRM) mode. […]
# (§5) A sample volume of 20 μL was transferred into a plastic tube and mixed with 300μL acetonitrile/methanol mixture (3:1, v/v) to precipitate proteins. […] Bioanalysis of samples from each mouse were measured in duplicate and the results averaged. […]
# [2] = system: K. pneumoniae (EN124); assay: MIC of K. pneumoniae strain used in the in vivo efficacy studies; settings: Klebsiella pneumoniae
# Description: as §1, §2, §3, §4, §5
# [3] = system: efflux-defective E. coli; assay: Frequency of resistance, efflux-defective E. coli; settings: not told
# Description: as §1, with “Appendix. […]” for “Appendix.”
# Minimum inhibitory concentration (MIC) determination. […] Appropriate inoculation suspension density was assessed using a Sensititre Nephelometer with a Sensititre 0.5 […]
# Frequency of Resistance. Frequency of resistance was assessed by spread plating between […] cfu of a freshly-grown culture of the strain of interest on plates containing a concentration of compound corresponding to 4 times the MIC of the strain (as determined by agar-dilution MIC). […] The frequency of resistance was determined by dividing the number of colonies obtained on the selective plates after 24 hours of growth by the calculated total population plated. […]
# [4] = system: efflux-defective E. coli; assay: MIC in phenotypic screen, tolC-inactivated E. coli; settings: Escherichia coli, read-out: MIC against efflux-defective E. coli
# Source text: In a search for new drug targets and starting points for antibiotic discovery, we initiated a series of phenotypic screens, based on publicly available chemical libraries and information gathered from the literature, focusing on compounds for which there was some evidence of Gram-negative antibacterial activity. In our initial screens, we evaluated activity against tolC-inactivated mutants of E. coli. The TolC protein is the outer membrane channel protein that is required for activity of several of the most important efflux pumps in E. coli, and inactivation of TolC essentially abolishes efflux pump activity ([27]). […] We successfully isolated resistant mutants against this compound. […] We resynthesized the AZ1 compound and confirmed the involvement of LpxH by WGS of selected resistant clones (SI Appendix, Table S1) ([24]–[26]). Both our own, and previously published mutations, map to the lipid X (enzymatic reaction product) binding site of LpxH (SI Appendix, Table S1 and Fig. S1A) ([23]). […]
# Minimum inhibitory concentration (MIC) values were determined according to the Clinical Laboratory Standards Institute guidelines. Frequency of resistance was determined by plating ~5 × 10^8 bacterial cells on agar-solidified media plates containing test compound at concentrations corresponding to four times the measured solid-media MIC of the strains. […]
smiles,measurement,setting,value
Cc1cc(C#N)nc(N2CCN(S(=O)(=O)c3ccc(NC(=O)c4cc(CN5CC(CN)C5)ccc4N(C)S(C)(=O)=O)cc3)CC2)n1 [EBL-3647],MIC,[1],4 µg/mL
same,MIC,[2],4 µg/mL
CN(c1ccccc1C(=O)Nc1ccc(S(=O)(=O)N2CCN(c3cccc(C(F)(F)F)c3)CC2)cc1)S(C)(=O)=O [JEDI-1444],Frequency of resistance in efflux-defective E. coli,[3],low frequency of resistance
CN(c1ccccc1C(=O)Nc1ccc(S(=O)(=O)N2CCCCC2)cc1)S(C)(=O)=O [JEDI-852],MIC,[4],4 to 8 µg/mL
